Test results taken from ChEMBL document CHEMBL4507259 (2021).

Tests used:
[1] = target: Serine/threonine-protein kinase ULK2 (Homo sapiens) (UniProt Q8IYT8); conditions: Compound concentration 1000.0 nM
[2] = target: D(4) dopamine receptor (Homo sapiens) (UniProt P21917); conditions: Compound concentration 10.0 uM
[3] = target: T1, 5-hydroxytryptamine receptor 1A (Homo sapiens) (UniProt P08908); conditions: Compound concentration 10.0 uM
T1 sequence (whole entry): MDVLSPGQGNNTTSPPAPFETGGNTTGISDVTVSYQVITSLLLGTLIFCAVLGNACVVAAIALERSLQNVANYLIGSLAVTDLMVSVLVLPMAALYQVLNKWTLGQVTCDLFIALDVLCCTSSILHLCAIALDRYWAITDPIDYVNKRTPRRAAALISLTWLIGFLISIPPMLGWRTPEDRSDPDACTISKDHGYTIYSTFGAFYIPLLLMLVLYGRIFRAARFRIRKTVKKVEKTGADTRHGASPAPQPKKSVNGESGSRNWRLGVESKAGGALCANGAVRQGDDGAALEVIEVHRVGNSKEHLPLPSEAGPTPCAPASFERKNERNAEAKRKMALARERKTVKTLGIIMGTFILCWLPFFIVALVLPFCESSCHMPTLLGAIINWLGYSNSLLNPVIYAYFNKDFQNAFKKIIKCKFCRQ

[4] = target: Transient receptor potential cation channel subfamily M member 6 (Homo sapiens) (UniProt Q9BX84); conditions: Compound concentration 1000.0 nM
Sequence of Transient receptor potential cation channel subfamily M member 6 (Homo sapiens) (Q9BX84 whole entry): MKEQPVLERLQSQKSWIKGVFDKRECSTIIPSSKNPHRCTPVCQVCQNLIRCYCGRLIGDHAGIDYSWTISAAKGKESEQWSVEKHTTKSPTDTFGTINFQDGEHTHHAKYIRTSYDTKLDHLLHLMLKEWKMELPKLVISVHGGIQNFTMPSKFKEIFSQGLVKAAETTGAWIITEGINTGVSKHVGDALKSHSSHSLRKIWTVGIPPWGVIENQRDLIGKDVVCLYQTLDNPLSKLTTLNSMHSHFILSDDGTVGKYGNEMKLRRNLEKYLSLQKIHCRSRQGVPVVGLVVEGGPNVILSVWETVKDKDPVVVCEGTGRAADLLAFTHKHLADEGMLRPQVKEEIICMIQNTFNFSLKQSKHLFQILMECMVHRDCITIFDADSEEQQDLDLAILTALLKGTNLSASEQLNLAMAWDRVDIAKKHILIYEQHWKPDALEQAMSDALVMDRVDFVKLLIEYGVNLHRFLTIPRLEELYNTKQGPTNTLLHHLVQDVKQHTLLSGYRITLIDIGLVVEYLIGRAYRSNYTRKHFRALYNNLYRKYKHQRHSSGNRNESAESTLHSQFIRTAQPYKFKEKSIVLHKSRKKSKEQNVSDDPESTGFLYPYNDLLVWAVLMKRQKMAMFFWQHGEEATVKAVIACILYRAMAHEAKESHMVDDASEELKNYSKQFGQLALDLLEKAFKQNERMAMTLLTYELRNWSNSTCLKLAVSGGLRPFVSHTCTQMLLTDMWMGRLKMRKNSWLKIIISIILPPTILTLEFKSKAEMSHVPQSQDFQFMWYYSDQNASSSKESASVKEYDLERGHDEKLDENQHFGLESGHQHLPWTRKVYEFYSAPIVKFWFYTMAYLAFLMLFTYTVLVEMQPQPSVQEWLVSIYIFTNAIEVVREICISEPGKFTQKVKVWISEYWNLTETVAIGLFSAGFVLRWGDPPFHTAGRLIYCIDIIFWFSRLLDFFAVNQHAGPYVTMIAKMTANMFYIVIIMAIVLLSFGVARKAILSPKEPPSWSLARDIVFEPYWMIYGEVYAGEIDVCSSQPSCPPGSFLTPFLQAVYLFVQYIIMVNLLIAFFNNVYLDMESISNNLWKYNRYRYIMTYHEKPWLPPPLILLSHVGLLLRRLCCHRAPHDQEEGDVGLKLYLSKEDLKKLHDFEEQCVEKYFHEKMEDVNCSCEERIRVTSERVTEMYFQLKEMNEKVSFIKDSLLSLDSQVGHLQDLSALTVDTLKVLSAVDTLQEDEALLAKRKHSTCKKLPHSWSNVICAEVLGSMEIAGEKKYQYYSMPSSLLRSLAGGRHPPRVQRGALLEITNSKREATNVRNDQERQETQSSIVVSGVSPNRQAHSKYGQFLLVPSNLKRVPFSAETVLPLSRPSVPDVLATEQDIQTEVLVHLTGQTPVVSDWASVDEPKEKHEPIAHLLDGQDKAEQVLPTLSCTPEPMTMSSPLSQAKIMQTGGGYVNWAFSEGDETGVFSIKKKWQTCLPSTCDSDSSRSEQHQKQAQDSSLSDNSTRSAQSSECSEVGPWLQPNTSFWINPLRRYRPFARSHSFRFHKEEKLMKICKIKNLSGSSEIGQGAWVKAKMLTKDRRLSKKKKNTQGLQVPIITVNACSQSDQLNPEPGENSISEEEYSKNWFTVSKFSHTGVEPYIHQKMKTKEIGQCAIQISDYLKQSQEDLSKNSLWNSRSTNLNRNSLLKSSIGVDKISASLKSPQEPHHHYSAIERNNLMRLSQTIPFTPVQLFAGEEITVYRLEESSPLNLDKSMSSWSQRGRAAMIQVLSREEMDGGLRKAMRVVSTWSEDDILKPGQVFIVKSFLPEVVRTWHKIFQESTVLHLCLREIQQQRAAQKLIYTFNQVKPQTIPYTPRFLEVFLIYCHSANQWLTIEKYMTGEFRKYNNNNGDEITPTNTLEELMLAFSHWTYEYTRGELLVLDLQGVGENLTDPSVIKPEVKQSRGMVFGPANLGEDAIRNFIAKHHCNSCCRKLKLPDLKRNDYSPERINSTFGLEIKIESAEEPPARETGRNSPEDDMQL

[5] = target: Serine/threonine-protein kinase NLK (Homo sapiens) (UniProt Q9UBE8); conditions: Compound concentration 1000.0 nM
[6] = target: Sodium/potassium-transporting ATPase (Homo sapiens) (UniProt P05023+P14415+P05026+P50993+P54709+P13637+Q13733+P54710); experiment: ATPase (Na+/K+) CEREP ligand profiling; assay type: protein-complex assay; conditions: Compound concentration 10.0 uM
[7] = target: Calcium/calmodulin-dependent protein kinase type 1D (Homo sapiens) (UniProt Q8IU85); conditions: Compound concentration 1000.0 nM
Sequence of Calcium/calmodulin-dependent protein kinase type 1D (Homo sapiens) (Q8IU85 whole entry, looked up): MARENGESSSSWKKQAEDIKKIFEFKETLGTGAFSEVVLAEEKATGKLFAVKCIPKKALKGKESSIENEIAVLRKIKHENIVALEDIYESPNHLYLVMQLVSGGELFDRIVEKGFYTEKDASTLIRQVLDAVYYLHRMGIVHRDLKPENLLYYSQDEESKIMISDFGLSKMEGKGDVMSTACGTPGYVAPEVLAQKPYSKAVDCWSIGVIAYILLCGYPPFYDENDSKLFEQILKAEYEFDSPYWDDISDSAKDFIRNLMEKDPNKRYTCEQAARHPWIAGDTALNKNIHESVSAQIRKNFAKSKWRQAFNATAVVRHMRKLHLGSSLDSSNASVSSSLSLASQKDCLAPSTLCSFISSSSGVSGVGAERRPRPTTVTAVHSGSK

[8] = target: Megakaryocyte-associated tyrosine-protein kinase (Homo sapiens) (UniProt P42679); conditions: Compound concentration 1000.0 nM
[9] = target: cAMP-dependent protein kinase catalytic subunit alpha (Homo sapiens) (UniProt P17612); conditions: Compound concentration 1000.0 nM
[10] = target: 5-hydroxytryptamine receptor 5A (Homo sapiens) (UniProt P47898); conditions: Compound concentration 10.0 uM
[11] = target: Microtubule-associated serine/threonine-protein kinase 1 (Homo sapiens) (UniProt Q9Y2H9); conditions: Compound concentration 1000.0 nM
[12] = target: 3-phosphoinositide-dependent protein kinase 1 (Homo sapiens) (UniProt O15530); conditions: Compound concentration 1000.0 nM
[13] = target: G protein-coupled receptor kinase 3 (Homo sapiens) (UniProt P35626); conditions: Compound concentration 1000.0 nM
Sequence of G protein-coupled receptor kinase 3 (Homo sapiens) (P35626 whole entry): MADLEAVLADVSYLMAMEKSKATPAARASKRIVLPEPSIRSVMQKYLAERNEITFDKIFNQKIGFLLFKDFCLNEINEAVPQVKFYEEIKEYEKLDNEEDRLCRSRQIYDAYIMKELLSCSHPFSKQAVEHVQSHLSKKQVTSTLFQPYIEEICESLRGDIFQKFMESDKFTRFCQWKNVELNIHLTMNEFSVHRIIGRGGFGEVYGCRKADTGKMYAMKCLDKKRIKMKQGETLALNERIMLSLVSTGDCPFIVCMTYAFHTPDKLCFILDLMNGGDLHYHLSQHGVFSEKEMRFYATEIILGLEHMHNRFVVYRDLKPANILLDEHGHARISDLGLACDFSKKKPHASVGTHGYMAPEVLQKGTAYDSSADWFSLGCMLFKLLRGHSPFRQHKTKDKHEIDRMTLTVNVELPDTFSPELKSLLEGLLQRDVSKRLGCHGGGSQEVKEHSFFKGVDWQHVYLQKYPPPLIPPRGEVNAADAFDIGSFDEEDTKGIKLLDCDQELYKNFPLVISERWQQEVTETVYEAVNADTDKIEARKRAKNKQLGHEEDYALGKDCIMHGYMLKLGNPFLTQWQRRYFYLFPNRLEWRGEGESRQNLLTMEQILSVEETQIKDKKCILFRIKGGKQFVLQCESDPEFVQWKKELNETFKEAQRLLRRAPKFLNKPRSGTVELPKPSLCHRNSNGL

[14] = target: Mitogen-activated protein kinase kinase kinase 9 (Homo sapiens) (UniProt P80192); conditions: Compound concentration 1000.0 nM
[15] = target: Serine/threonine-protein kinase BRSK2 (Homo sapiens) (UniProt Q8IWQ3); conditions: Compound concentration 1000.0 nM
[16] = target: Tyrosine-protein kinase ABL1 (Homo sapiens) (UniProt P00519); conditions: Compound concentration 1000.0 nM
Sequence of Tyrosine-protein kinase ABL1 (Homo sapiens) (P00519 whole entry): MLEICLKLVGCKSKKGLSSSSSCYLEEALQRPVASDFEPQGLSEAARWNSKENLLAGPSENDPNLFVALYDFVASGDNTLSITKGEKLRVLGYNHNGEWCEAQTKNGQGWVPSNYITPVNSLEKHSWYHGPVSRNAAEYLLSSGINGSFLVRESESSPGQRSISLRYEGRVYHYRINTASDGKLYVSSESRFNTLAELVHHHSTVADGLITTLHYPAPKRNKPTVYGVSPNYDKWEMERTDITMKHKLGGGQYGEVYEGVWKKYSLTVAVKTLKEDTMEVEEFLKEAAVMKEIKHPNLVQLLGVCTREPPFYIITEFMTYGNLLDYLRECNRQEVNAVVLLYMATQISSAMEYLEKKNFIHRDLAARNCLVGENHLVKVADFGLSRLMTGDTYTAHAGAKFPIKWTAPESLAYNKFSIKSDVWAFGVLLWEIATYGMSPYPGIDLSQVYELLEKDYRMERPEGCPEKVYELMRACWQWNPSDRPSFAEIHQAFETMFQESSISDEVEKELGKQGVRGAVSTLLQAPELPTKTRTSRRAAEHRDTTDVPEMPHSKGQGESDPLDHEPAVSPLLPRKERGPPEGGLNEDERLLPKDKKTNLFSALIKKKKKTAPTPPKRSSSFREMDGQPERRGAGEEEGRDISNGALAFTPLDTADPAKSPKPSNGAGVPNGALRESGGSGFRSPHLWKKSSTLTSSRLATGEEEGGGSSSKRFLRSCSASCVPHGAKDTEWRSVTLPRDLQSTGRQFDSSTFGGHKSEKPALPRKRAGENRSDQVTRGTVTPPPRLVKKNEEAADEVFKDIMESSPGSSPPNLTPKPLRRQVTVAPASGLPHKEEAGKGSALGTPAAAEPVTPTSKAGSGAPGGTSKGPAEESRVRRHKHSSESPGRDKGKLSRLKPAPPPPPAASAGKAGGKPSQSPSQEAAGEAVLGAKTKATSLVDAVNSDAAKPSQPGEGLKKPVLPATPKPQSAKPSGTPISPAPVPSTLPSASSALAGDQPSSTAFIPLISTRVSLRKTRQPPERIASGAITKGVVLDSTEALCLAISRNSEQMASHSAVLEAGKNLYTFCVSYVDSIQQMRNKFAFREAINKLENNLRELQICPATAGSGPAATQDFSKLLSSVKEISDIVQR

[17] = target: Dual specificity protein kinase CLK4 (Homo sapiens) (UniProt Q9HAZ1); conditions: Compound concentration 1000.0 nM
[18] = target: Wee1-like protein kinase 2 (Homo sapiens) (UniProt P0C1S8); conditions: Compound concentration 1000.0 nM
[19] = target: Cyclin-dependent kinase 11A (Homo sapiens) (UniProt Q9UQ88); conditions: Compound concentration 1000.0 nM
[20] = target: NUAK family SNF1-like kinase 2 (Homo sapiens) (UniProt Q9H093); conditions: Compound concentration 1000.0 nM
[21] = target: Serine/threonine-protein kinase MARK1 (Homo sapiens) (UniProt Q9P0L2); conditions: Compound concentration 1000.0 nM
Sequence of Serine/threonine-protein kinase MARK1 (Homo sapiens) (Q9P0L2 whole entry, looked up): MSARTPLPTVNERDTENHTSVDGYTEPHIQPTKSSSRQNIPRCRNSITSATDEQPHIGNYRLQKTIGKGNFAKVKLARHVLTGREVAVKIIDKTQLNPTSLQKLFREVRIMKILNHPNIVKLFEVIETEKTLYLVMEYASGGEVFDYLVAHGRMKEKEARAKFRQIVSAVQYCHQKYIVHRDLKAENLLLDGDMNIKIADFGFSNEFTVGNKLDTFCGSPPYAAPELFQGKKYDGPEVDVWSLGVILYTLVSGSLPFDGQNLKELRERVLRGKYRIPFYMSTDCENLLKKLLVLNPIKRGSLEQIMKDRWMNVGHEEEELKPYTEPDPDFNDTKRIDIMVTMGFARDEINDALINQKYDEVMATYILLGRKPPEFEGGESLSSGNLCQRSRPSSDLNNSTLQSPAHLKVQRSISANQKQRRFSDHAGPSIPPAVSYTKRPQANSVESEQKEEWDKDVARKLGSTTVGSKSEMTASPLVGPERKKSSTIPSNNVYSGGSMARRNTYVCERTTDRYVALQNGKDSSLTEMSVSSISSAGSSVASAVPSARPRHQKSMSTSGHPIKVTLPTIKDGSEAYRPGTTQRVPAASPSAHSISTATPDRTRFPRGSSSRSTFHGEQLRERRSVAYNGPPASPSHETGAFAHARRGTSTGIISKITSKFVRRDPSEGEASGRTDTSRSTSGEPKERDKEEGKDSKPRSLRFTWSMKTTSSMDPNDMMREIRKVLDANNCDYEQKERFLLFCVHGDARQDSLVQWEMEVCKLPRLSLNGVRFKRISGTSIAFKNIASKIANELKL

D(3) dopamine receptor = D(3) dopamine receptor (Homo sapiens, UniProt P35462); conditions: Compound concentration 10.0 uM
[22] = target: Cytoplasmic tyrosine-protein kinase BMX (Homo sapiens) (UniProt P51813); conditions: Compound concentration 1000.0 nM
[23] = target: Phosphatidylinositol 4,5-bisphosphate 3-kinase catalytic subunit beta isoform (Homo sapiens) (UniProt P42338); conditions: Compound concentration 1000.0 nM
[24] = target: Epidermal growth factor receptor (Homo sapiens) (UniProt P00533); conditions: Compound concentration 1000.0 nM
[25] = target: Proto-oncogene tyrosine-protein kinase receptor Ret (Homo sapiens) (UniProt P07949); conditions: Compound concentration 1000.0 nM
[26] = target: T2, Alpha-2B adrenergic receptor (Homo sapiens) (UniProt P18089); conditions: Compound concentration 10.0 uM
T2 sequence (whole entry): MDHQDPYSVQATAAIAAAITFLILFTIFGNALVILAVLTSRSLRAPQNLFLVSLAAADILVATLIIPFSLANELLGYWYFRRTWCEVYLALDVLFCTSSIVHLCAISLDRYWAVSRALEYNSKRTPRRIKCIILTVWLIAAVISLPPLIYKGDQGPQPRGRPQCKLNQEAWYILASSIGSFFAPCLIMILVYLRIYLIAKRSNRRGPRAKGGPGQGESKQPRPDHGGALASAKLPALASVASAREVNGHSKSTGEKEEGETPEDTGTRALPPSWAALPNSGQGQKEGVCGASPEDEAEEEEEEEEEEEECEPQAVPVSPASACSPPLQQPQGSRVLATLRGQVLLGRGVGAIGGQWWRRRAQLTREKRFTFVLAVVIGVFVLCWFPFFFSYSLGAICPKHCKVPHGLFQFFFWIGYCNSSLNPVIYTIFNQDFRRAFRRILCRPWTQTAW

[27] = target: Macrophage-stimulating protein receptor (Homo sapiens) (UniProt Q04912); conditions: Compound concentration 1000.0 nM
[28] = target: Sulfonylurea receptors; K-ATP channels (Homo sapiens) (UniProt Q14654+O60706+Q09428+Q15842); experiment: KATP channel CEREP ligand profiling; assay type: protein-complex assay; conditions: filed as antagonist; Compound concentration 10.0 uM
[29] = target: Proto-oncogene tyrosine-protein kinase Src (Homo sapiens) (UniProt P12931); conditions: Compound concentration 1000.0 nM
[30] = target: STE20-like serine/threonine-protein kinase (Homo sapiens) (UniProt Q9H2G2); conditions: Compound concentration 1000.0 nM
[31] = target: Mitogen-activated protein kinase kinase kinase kinase 2 (Homo sapiens) (UniProt Q12851); conditions: Compound concentration 1000.0 nM

Row | Compound | residual activity [1] | inhibition [2] | inhibition [3] | residual activity [4] | residual activity [5] | inhibition [6] | residual activity [7] | residual activity [8] | residual activity [9] | inhibition [10] | residual activity [11] | residual activity [12] | residual activity [13] | residual activity [14] | residual activity [15] | residual activity [16] | residual activity [17] | residual activity [18] | residual activity [19] | residual activity [20] | other results
1 | CNC(=O)Nc1ccc2c(c1)CC[C@@]21OC(=O)N(CC(=O)N(Cc2ccc(F)cc2)[C@@H](C)C(F)(F)F)C1=O [A-485] | 82% | 7.26% | 6.87% | 100% | 82% | -1% | 94% | 71% | 100% | 5.99% | 94% | 88% | 100% | 89% | 70% | 72% | 90% | 75% | 83% | 74% | residual activity [21]: 89%; inhibition (D(3) dopamine receptor): 1.52%; residual activity [22]: 72%; residual activity [23]: 94%; residual activity [24]: 100%; residual activity [25]: 90%; inhibition [26]: 26.5%; residual activity [27]: 77%; inhibition [28]: 24%; residual activity [29]: 91%; residual activity [30]: 82%; residual activity [31]: 76%
2 | CNC(=O)Nc1ccc2c(c1)[C@@]1(CC2)OC(=O)N(CC(=O)N(Cc2ccc(F)cc2)[C@@H](C)C(F)(F)F)C1=O [A-486] | 100% | 8.38% | 4.17% | 98% | 77% | -1% | 100% | 100% | 99% | 2.78% | 85% | 85% | 100% | 100% | 90% | 84% | 78% | 100% | 94% | 77% | residual activity [21]: 100%; inhibition (D(3) dopamine receptor): 57.8%; residual activity [22]: 99%; residual activity [23]: 97%; residual activity [24]: 100%; residual activity [25]: 93%; inhibition [26]: 10.2%; residual activity [27]: 100%; inhibition [28]: 19%; residual activity [29]: 90%; residual activity [30]: 83%; residual activity [31]: 92%
